Laboratory results as given in patent US20050069907A1, “Methods for using double-mutant RNA polymerases with reduced discrimination between non-canonical and canonical nucleoside triphosphates” (priority 2002, published 2005).

Key:
Type in all cases: biochemical
poly(dC) = test: Apparent miscoding on homopolymeric template poly(dC); conditions: for Relative rate of incorporation GTP/ATP / Relative rate of incorporation GTP/CTP / Relative rate of incorporation GTP/UTP / Relative rate of incorporation of rGTP vs non-complementary rNTPs: poly(dC); for Relative rate of incorporation GTP/ATP / Relative rate of incorporation GTP/CTP / Relative rate of incorporation GTP/UTP: Mg^2+ buffer
Description: (§1) Transcription reactions: Transcription reactions were carried out in 40 mM Tris-Cl pH 8.0, 15 mM MgCl2, and 5 mM DTT or 20 mM Manganese Citrate pH 8.0, 5 mM DTT at 37° C. Template, polymerase, and NTP concentrations were as indicated in the legends to the figures and tables. Relative activity determinations were made by taking 4 μl aliquots of reactions at 5, 10, and 20 minute time points and spotting on to DE81 filter paper. Unincorporated nucleotides were separated from incorporated nucleotides by washing the filter paper with 0.5 M KH2PO4 pH 7.0 and retained radioactive nucleotide was quantitated with a Molecular Dynamics phosphorimager. To evaluate rNTP/dNTP selectivity, reactions were run with 4 rNTPs and pT75 as template and α-P^32 rNTPs or α-P^32 dNTPs were used to label the transcripts. The relative rate of incorporation of an rNTP vs. its cognate dNTP was determined from the relative percentages of labeled rNTP vs. dNTP incorporated into DE81 retainable RNA at 5, 10, and 20 minute time points. Apparent miscoding frequencies were determined similarly, though in this instance the template was a single-stranded homopolymer and the reaction contained the complementary unlabeled rNTP, and complementary α-P^32 rNTP or one of the 3 non-complementary α-P^32 rNTPs. The relative percentages of labeled complementary vs. non-complementary rNTPs incorporated at 5, 10 and 20 minute time points gave an apparent miscoding rate. The rNTP/dNTP selectivity assay was used to test the following T7 RNAP mutants for effects on substrate discrimination: D537S, D537E, S539A, R5S1S, D552S, R627S, K631S, L637A, Y639S, Y639F, Y639A, G640A, F644A, G645A, Q649S, […], H811S, H811A, D812A, D812E, D812S, D812N, D879E+ΔF882+ΔA883, D879E+A881T+ΔA883, D879E+F884+A885, D879E+F882Y, D879E+ΔA883, D879E+F882W, D879E.
An increase in miscoding would be reflected in an increase in the rate of incorporation of the non-complementary NTP into RNA.
Numbers are averages from 2 experiments and reflect the ratio of the percentages of labeled rNTPs incorporated into RNA in reactions in which unlabeled complementary rNTPs were in great excess (0.5 mM) to labeled complementary or non-complementary rNTPs. Templates were at 0.1 mg/ml. Polymerases were at 10^−8 M in Mg^2+ buffer and 10^−7 M in Mn^2+ buffer.
*The upper number refers to results obtained in Mg^2+ buffer, the lower number to results in Mn^2+ buffer. n.d.: G640A, Y639A, Y639S were poorly active in Mn^2+ buffer, or on poly(dT) under all conditions.

poly(dI)·poly(dC) = test: Relative activity on poly(dI)·poly(dC)
Description: as §1
DNA and RNA synthesis on homopolymeric templates: T7 RNAP will synthesize poly(rG) RNAs on poly(dC) templates (Bonner, et al., 1994; Ikeda and Richardson 1987). The activity of the W.T. and mutant polymerases were measured on poly(dI)-poly(dC) with rGTP, dGTP, dGTP+rGMP (see, Table III).
Numbers give mean and range from 3 experiments. Templates were at 0.2 mg/ml, polymerases at 10^-8 M. Labeling NTPs were α-P^32 rGTP, α-P^32 dGTP, α-P^32 rATP, α-P^32 dATP, as appropriate. rNTPs or rNMPs at 0.5 mM; dNTPs at 1 mM.

[1] = 2′-group discrimination of M635 mutants; conditions: wild-type or Y639F T7 RNAP background
Description: Other mutations: It is conceivable that, in the absence of a bound rNTP, a hydrogen bond forms between Y639 and some other active site side chain. The possibility of an interaction between M635 and Y639 was tested since M635 and Y639 are close and M635 approaches the ribose in our models of NTP in T7 RNAP (Huang, et al., submitted for publication). This position is methionine in the T7 RNAP class of RNAPs (McAllister, W.T., 1993), but is either tyrosine or phenylalanine in the homologous DNAPs, and in the DNAP mutants at this site (i.e., positions homologous to position 762 in E. coli DNAP I) that affect dNTP/ddNTP discrimination (Tabor. S., and Richardson, C. C., European patent application, 1994). […] Additional studies will reveal whether these M635 mutations have other effects, such as effects on discrimination at the 3′-position of the sugar, or effects on discrimination with respect to NTPs with other substituents, such as fluorine at the 2′ position of the sugar. Also, studies on similar double mutations at the homologous sites in the homologous class I DNAPs will reveal the effects of such double mutations on discrimination at the 2′- and 3′-positions of the sugar; specifically, these studies will reveal whether class I DNAPs having a phenylalanine at the position homologous to amino acid position 766 in E. coli DNAP I have reduced discrimination for rNTPs if the amino acid is methionine or tyrosine at the position homologous to amino acid position 762 in E. coli DNAP I.

pT75 = test: Activity with NTPs containing different 2′-substituents; design: unit not given here
Description: Activity was determined with pT75 as template but with one of the rNTPs replaced with a dNTP or a 2′-modified NTP. The labeling NTP was UTP (in reactions with 2′-modified CTPs or ATPs) or CTP (in reactions with 2′-modified UTPs). Y639F and Y639M represent enzymes with substitutions of the wild-type (W.T.) tyrosine at position 639 by phenyalanine (F) or methionine (M), respectively.

[2] = rGTP, mean and range from 3 experiments

Row | Substance | Activity in Mn^2+ buffer, or on poly(dT) under all conditions (poly(dC)) | Relative rate of incorporation GTP/ATP (poly(dC)) | Relative rate of incorporation GTP/CTP (poly(dC)) | Relative rate of incorporation GTP/UTP (poly(dC)) | Relative activity on poly(dI)·poly(dC) (poly(dI)·poly(dC); dGTP) | Relative activity on poly(dI)·poly(dC) (poly(dI)·poly(dC); dGTP + rGMP) | Relative activity on poly(dI)·poly(dC) (poly(dI)·poly(dC); [2]) | 2′-group discrimination with respect to dNTPs and rNTPs [1] | other results
1 | G640A: T7 RNAP mutant adjacent to Y639 that does not affect substrate discrimination [reference compound] | poorly active | 388 | 508 | >1320 | <5 | <5 | 240 (200-270) | – | –
2 | M635A: T7 RNAP M635 mutant | – | – | – | – | – | – | – | did not affect 2′-group discrimination | –
3 | M635F: T7 RNAP M635 mutant | – | – | – | – | – | – | – | did not affect 2′-group discrimination | –
4 | M635Y: T7 RNAP M635 mutant | – | – | – | – | – | – | – | did not affect 2′-group discrimination | –
5 | Y639A: poorly active non-conservative tyrosine 639 mutation of T7 RNAP | poorly active | >184 | >184 | >184 | 5.3 (4.8-5.5) | 25 (17-30) | 145 (142-151) | – | Relative rate of incorporation of rGTP vs non-complementary rNTPs (poly(dC)): 184 fold
6 | Y639M: T7 RNAP with tyrosine at position 639 substituted by methionine | – | – | – | – | – | – | – | – | Activity (pT75; 2′-F-ATP replacing ATP): 9.7 ± .20; Activity (pT75; 2′-F-CTP replacing CTP): 47 ± .70; Activity (pT75; 2′-F-UTP replacing UTP): 23 ± .72; Activity (pT75; 2′-NH2-ATP replacing ATP): .92 ± .035; Activity (pT75; 2′-NH2-CTP replacing CTP): 21 ± .38; Activity (pT75; 2′-NH2-UTP replacing UTP): 3.6 ± .19; Activity (pT75; 2′-dATP replacing ATP): 3.2 ± .11; Activity (pT75; 2′-dCTP replacing CTP): 32 ± 1.1; Activity (pT75; 2′-dUTP replacing UTP): 11 ± .46; Activity (pT75; ATP): 51 ± 1.3; Activity (pT75; CTP): 54 ± 3.9; Activity (pT75; UTP): 50 ± 1.2
7 | Y639S: poorly active non-conservative tyrosine 639 mutation of T7 RNAP | poorly active | >50 | >50 | >50 | .6 | 4.4 | 48 (47-50) | – | Relative rate of incorporation of rGTP vs non-complementary rNTPs (poly(dC)): 50 fold
